In assay [1] the target is T1, E. feacalis DltA (Enterococcus faecalis, UniProt Q830N0).
T1 sequence (Q830N0 1-506): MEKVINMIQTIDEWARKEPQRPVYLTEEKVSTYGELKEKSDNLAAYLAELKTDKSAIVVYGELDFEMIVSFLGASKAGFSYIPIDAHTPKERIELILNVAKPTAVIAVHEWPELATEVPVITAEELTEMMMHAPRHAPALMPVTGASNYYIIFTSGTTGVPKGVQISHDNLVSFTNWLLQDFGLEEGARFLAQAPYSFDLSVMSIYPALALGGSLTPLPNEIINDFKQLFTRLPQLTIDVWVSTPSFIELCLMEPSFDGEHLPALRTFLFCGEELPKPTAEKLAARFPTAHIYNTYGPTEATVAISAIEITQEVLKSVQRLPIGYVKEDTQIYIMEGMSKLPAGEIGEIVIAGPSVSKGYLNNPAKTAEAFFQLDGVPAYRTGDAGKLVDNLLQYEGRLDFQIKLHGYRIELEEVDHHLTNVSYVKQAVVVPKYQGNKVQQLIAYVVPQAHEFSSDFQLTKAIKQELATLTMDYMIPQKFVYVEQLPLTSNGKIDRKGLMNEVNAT
Put plainly: biochemical. The procedure:
(§1) To this end, recombinant proteins DltA were expressed and purified after cloning of the genes of S. aureus, E. faecalis, E. faecium and S. agalactiae as described thereafter. The capacity of the compounds of the invention to inhibit DltA enzymatic activity was assessed using the DltA assays as described below: • The dltA gene was amplified from chromosomal DNA of S. aureus, E. faecalis, E. faecium and S. agalactiae and introduced into E. coli BL21 (Invitrogen, Carlsbad, CA) following manufacturer's instruction. Bacteria were grown at 37°C under aerobic conditions and isopropyl-beta-D-thiogalactopyranoside (IPTG) was added to 0.5-1 mM when OD600 of the bacterial culture had reached 0.5. After a further incubation for 3 hours, cells were harvested by centrifugation. Purification of the recombinant DltA protein was performed by affinity chromatography on nickel-nitrilotriacetic acid (Ni-NTA) column following manufacturer's instructions (Qiagen). Fractions containing recombinant DltA protein were adjusted to 50% glycerol and stored at -20°C until use.
(§2) The binding potency of the inhibitors against DltA enzyme was assessed by IC50 determination in an in vitro DltA activity assay. The assay buffer "AB" contained 50 mM Hepes pH8.0, 10mM MgCl2, 50mM KCI, 0.012% Triton-X100, 10mM DTT and 100nM Myelin-basic protein. The following components were added in a white polystyrene Costar plate up to a final volume of 30µL: 3µL DMSO, or inhibitor dissolved in DMSO and 27µL DltA enzyme in AB. After 30min of preincubation at room temperature, 30µL of Substrates mix in AB were added in each well to a final volume of 60µL. This reaction mixture was then composed of DltA (produced in house from S. aureus, E. faecalis, E. faecium and S. agalactiae), 0.5mM D-Alanine (Sigma), 0.5-5µM ATP (Sigma) and 0.05 u/ml inorganic pyrophosphatase (Sigma) in assay buffer. After typically 1-2hours of incubation at room temperature (conversion rate around 30%), 30µL of the revelation mix were added to a final volume of 90µL, including the following constituents at the respective final concentrations: 10000 u/ml luciferase (Sigma), 30µM D-luciferin (Sigma), 100µM N-acetylcysteamine (Aldrich). Luminescence intensity was immediately measured on a Fluostar Optima (BMG) (excitation 360nm, emission 520nm) and converted into inhibition percentages.
(§3) For compounds interfering with the luminescent signal (quenching), the same experiment without DltA enzyme was performed to allow quenching determination and correction.

Assay [2] addresses T2, S. Agalactiae DltA (Streptococcus agalactiae serotype III, UniProt Q8VM67).
T2 sequence (Q8VM67 1-511): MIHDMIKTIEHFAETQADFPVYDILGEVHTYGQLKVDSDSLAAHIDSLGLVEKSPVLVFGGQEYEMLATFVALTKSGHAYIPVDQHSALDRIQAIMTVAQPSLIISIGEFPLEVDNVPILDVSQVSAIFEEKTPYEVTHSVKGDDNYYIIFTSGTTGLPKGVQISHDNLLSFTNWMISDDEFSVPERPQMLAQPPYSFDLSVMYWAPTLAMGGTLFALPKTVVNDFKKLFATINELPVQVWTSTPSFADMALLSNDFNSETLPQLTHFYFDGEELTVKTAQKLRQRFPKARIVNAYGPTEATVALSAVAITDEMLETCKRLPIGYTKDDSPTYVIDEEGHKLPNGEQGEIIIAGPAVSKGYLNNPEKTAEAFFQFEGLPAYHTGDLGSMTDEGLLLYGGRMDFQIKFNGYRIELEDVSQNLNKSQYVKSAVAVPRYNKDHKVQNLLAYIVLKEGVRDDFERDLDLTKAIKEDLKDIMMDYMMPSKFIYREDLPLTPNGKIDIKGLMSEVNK
Put plainly: biochemical. The procedure: as §1, §2, §3

Assay [3] deals with T3, S. aureus DltA (Staphylococcus aureus, UniProt Q2FZW6).
T3 construct: made in house; host or cells: E. coli BL21
T3 sequence (Q2FZW6 1-485): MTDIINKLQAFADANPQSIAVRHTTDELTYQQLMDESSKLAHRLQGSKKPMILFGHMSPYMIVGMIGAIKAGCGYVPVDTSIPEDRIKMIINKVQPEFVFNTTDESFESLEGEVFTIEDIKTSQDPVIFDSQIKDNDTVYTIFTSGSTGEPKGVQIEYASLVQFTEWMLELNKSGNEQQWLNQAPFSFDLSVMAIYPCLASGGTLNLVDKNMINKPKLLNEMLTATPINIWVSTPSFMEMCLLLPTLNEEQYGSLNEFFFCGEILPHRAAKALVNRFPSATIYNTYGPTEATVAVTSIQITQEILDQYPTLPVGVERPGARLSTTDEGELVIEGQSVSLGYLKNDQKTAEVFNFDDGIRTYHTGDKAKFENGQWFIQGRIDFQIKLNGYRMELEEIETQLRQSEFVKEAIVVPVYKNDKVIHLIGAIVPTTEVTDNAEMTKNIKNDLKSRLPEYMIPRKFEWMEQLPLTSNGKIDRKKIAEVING
The assay can be described thus: in vitro DltA activity assay (luminescence, IC50 determination). It counts as biochemical. The procedure: as §1, with “The effect of the compounds of the invention on DltA enzymes has been based on the measure of their inhibition of DltA activity in vitro. To” for “To”
as §2, §3

Assay [4] addresses T4, E. feacium DltA (Enterococcus faecium, UniProt Q3XZT7).
T4 sequence (Q3XZT7 1-504): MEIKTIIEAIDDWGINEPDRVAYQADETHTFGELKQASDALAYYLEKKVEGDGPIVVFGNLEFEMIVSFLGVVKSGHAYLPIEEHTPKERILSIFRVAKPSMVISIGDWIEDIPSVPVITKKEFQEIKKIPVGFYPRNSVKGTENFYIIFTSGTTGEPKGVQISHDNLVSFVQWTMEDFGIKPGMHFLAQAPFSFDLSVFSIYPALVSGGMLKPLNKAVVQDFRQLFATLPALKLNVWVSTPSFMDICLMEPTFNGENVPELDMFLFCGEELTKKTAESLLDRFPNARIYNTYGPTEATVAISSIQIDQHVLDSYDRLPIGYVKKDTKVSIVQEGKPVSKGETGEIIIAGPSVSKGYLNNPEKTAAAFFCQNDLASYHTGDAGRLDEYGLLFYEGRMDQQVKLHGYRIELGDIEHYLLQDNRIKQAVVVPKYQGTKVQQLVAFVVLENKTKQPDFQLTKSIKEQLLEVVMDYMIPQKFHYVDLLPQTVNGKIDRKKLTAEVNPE
Described as above. It counts as biochemical. The procedure: as §1, with “The effect of the compounds of the invention on DltA enzymes has been based on the measure of their inhibition of DltA activity in vitro. To” for “To”
as §2, §3

Where [5] appears, read: recombinant DltA, 30min preincubation at room temperature, 0.5mM D-Alanine, 0.5-5µM ATP, read-out: E. feacium DltA IC50.

Experimental findings from patent publication EP2913333A1 (priority 2014, dated 2015) are described below.

Where a name gives a salt, the structure may show the parent alone. Read-outs that look alike come from different tables or passages of the source.

For orientation: IC50 means the point on the concentration scale where inhibition reaches its midpoint. Consider `CN1CC=C(c2cn(-c3ccc4c(c3)ncn4C3CCCCC3)c3nc[nH]c(=O)c23)CC1` [Example 53, 7-(1-cyclohexyl-1H-benzoimidazol-5-yl)-5-(1-methyl-1,2,3,6-tetrahydro-pyridin-4-yl)-3,7-dihydro-pyrrolo[2,3-d]pyrimidin-4-one], for which the IC50 in assay [1] was determined as 13 nM; in assay [2], 590 nM; in assay [3] it was 150 nM; in assay [4] (setting [5]), 94 nM.

`O=c1[nH]cnc2c(-c3ccc4c(c3)ncn4C3CCCCC3)cn(CCCCCO)c12` [Example 68, 7-(1-Cyclohexyl-1H-benzimidazol-5-yl)-5-(5-hydroxy-pentyl)-3,5-dihydro-pyrrolo[3,2-d]pyrimidin-4-one]: the IC50 in assay [1] came to 320 nM; in assay [2], 4500 nM; in assay [3], 290 nM; in assay [4] (setting [5]), 730 nM.

With `O=c1[nH]cnc2c1c(C1CCC(CO)C1)cn2-c1ccc2c(c1)ncn2C1CCCCC1` (stereo not shown) [Example 58, 7-(1-Cyclohexyl-1H-benzoimidazol-5-yl)-5-(3-hydroxymethyl-cyclopentyl)-3,7-dihydro-pyrrolo[2,3-d]pyrimidin-4-one], the half-maximal inhibitory concentration (IC50) came out at 190 nM in assay [1], 6100 nM in assay [2], 810 nM in assay [3] and 480 nM in assay [4] (setting [5]).

In the case of `O=c1[nH]cnc2c(-c3ccc4c(c3)ncn4C3CCCCC3)sc(N3CCC(CO)(CO)C3)c12` [Example 13, 5-(3,3-Bis-hydroxymethyl-pyrrolidin-1-yl)-7-(1-cyclohexyl-1H-benzoimidazol-5-yl)-3H-thieno[3,4-d]pyrimidin-4-one], the IC50 in assay [1] came out at 41 nM; in assay [2] it was 980 nM; in assay [3], 44 nM; in assay [4] (setting [5]), 140 nM.

As for `O=c1[nH]cnc2c(-c3ccc4c(c3)ncn4C3CCCCC3)sc(N3C[C@H](CO)[C@@H](CO)C3)c12` [Example 35, 5-((3R,4R)-3,4-Bis-hydroxymethyl-pyrrolidin-1-yl)-7-(1-cyclohexyl-1H-benzoimidazol-5-yl)-3H-thieno[3,4-d]pyrimidin-4-one], the IC50 in assay [1] came out at 39 nM; in assay [2], 870 nM; in assay [3], 54 nM; in assay [4] (setting [5]), 93 nM.

In the case of `COCCn1cnc2cc(-c3sc(N4CC[C@H](CO)C4)c4c(=O)[nH]cnc34)ccc21` [Example 46, 5-((S)-3-hydroxymethyl-pyrrolidin-1-yl)-7-[1-(2-methoxy-ethyl)-1H-benzoimidazol-5-yl]-3H-thieno[3,4-d]pyrimidin-4-one], the IC50 came to 150 nM in assay [1], 5100 nM in assay [2], 150 nM in assay [3] and 440 nM in assay [4] (setting [5]).

Take `O=c1[nH]cnc2c(-c3ccc4c(c3)ncn4C3CCCCC3)sc(N3C[C@@H]4[C@@H](CO)[C@@H]4C3)c12` [Example 30, 7-(1-Cyclohexyl-1H-benzimidazol-5-yl)-5-((1R,5S,6R)-6-hydroxymethyl-3-aza-bicyclo[3.1.0]hex-3-yl)-3H-thieno[3,4-d]pyrimidin-4-one]: the IC50 turned out to be 160 nM in assay [1], 2000 nM in assay [2], 220 nM in assay [3] and 320 nM in assay [4] (setting [5]).

For `O=c1[nH]cnc2c(-c3ccc4c(c3)ncn4C3CCCCC3)sc(N3CC4CNCC4C3)c12` (stereo not shown) [Example 25, 7-(1-Cyclohexyl-1H-benzoimidazol-5-yl)-5-(hexahydro-pyrrolo[3,4-c]pyrrol-2-yl)-3H-thieno[3,4-d]pyrimidin-4-one hydrochloride], the IC50 in assay [1] amounted to 22 nM; in assay [2] it was 630 nM; in assay [3], 39 nM; in assay [4] (setting [5]) it was 88 nM.

As to `O=c1[nH]cnc2c(-c3ccc4c(c3)ncn4C3CCCCC3)sc(N3CC4CNCC4(CO)C3)c12` (stereo not shown) [Example 34, 7-(1-cyclohexyl-1H-benzoimidazol-5-yl)-5-hydroxymethyl-hexahydro-pyrrolo[3,4-c]pyrrol-2-yl)-3H-thieno[3,4-d]pyrimidin-4-one hydrochloride], the concentration for half-maximal inhibition (IC50) in assay [1] is 14 nM; in assay [2] it was 400 nM; in assay [3], 27 nM; in assay [4] it was 61 nM.

For the compound `O=c1[nH]cnc2c1c(C1=CCNCC1)cn2-c1ccc2c(c1)ncn2C1CCCCC1` [Example 52, 7-(1-cyclohexyl-1H-benzoimidazol-5-yl)-5-(1,2,3,6-tetrahydro-pyridin-4-yl)-3,7-dihydro-pyrrolo[2,3-d]pyrimidin-4-one hydrochloride], the IC50 was determined as 26 nM in assay [1], 350 nM in assay [2], 150 nM in assay [3] and 120 nM in assay [4] (setting [5]).
